{"source": "patent US10124033B2", "about": "“Peptides and methods of use” (BAXALTA INCORPORATED, priority 2014, dated 2018)", "key": {"[1]": {"target": "T1, Protein S/APC cofactor activity (Homo sapiens, UniProt P07225)", "T1 construct": "host or cells: plasma", "T1 sequence (P07225 41-676 limits assumed)": "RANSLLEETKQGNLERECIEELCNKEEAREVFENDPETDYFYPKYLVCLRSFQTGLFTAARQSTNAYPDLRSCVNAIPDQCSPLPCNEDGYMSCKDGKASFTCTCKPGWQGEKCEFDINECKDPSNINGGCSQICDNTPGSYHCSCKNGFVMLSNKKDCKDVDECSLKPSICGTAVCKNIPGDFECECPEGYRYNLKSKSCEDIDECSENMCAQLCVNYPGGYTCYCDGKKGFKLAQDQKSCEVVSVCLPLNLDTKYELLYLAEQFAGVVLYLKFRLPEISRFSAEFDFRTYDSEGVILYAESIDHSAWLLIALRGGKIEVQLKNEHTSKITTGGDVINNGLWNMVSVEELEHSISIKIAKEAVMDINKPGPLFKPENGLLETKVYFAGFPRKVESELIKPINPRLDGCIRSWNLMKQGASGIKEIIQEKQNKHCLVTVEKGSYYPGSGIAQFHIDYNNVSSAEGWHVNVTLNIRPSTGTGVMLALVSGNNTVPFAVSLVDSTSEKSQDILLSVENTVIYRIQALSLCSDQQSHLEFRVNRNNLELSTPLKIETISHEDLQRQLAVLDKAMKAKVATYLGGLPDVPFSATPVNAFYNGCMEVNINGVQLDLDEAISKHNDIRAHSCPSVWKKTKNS", "experiment": "CAT assay: Protein S/APC-dependent thrombin generation in FVIII-inhibited plasma", "assay_type": "biochemical", "method": "Peptides also were tested for improvement of Protein S/APC-dependent thrombin generation in hemophilic plasma using a CAT assay. Protein S enhances the anticoagulation of APC in plasma. The CAT assay quantifies the effect of Protein S on APC-mediated thrombin generation initiated via the extrinsic coagulation pathway (Nicolaes, Blood Coagul. Fibrinolysis, 8:28 (1997)). APC (35 nM) and Protein S (25 nM) was added to Protein 5-depleted plasma, and plasma samples were incubated with high titer heat inactivated anti-human FVIII plasma raised in goat (4490 BU/ml; Baxter BioScience, Vienna, Austria; 50 BU/ml final plasma concentration). Thrombin formation in plasma was followed by calibrated automated thrombography (CAT) in a Fluoroskan Ascent® reader (Thermo Labsystems, Helsinki, Finland) and quantified via the thrombin peak-height. Thrombin generation was determined at high tissue factor (TF) concentration in the absence and in the presence of APC at a concentration that reduces the peak height to ˜20%. The inhibitory effect of peptides described herein on the APC cofactor activity of Protein S (PS) in plasma was measured in FVIII-inhibited pooled normal plasma supplemented with APC. Complete (100%) Protein S/APC inhibition is the height of the thrombin peak without addition of APC. Lack of (0%) PS/APC inhibition correlates to the thrombin peak-height value with a certain amount of APC. Peptides were ranked by their normalized values in comparison to the mean of wild-type controls including SD at two defined peptide concentrations (EC50 and EC90).\nExemplary conditions for the CAT assay are as follows. Protein S-depleted plasma was supplemented with 35 nM APC and […]. Stock APC was diluted with 10 pM TF and 15 μM PL. Lyophilized peptides were dissolved in 100% DMSO to a 5 mM stock concentration and further diluted with HNABSA5-buffer+0.1% Tween80. […] In a 96 well Immulon 2HB (transparent), U-bottom (ThermoElectron) plate was mixed 80 μl plasma (+CTI+Z994-5), 10 μl peptide dilution, and 10 μl APC-TF-PL-MIX or Calibrator. Thrombin generation was initiated by dispensing 20 μL of FluCa reagent containing fluorogenic substrate and HEPES-buffered CaCl2 (100 mM) into each well. Fluorescence intensity was recorded at 37° C. using the Fluoroskan Ascent® reader (filters 390 nm excitation and 460 nm emission). The parameters of the resulting thrombin generation curves were calculated using the Thrombinoscope™ software (Thrombinoscope) and thrombin calibrator to correct for inner filter and substrate consumption effects (Hemker, Pathophysiol Haemost Thromb, 33: 415 (2003))."}, "C4BP/PS complex": {"target": "T2, C4BP/PS complex (Homo sapiens, UniProt P07225)", "T2 sequence (P07225 41-676 limits assumed)": "T1 sequence (P07225 41-676 limits assumed)", "experiment": "LANCE IC50 assay on preformed C4BP/PS complex", "assay_type": "binding", "method": "To investigate the effect of the peptides described herein on PS/C4BP complexes, a LANCE IC50 assay was established using methods similar to those described above. JBS2572 or JBS3216 was added to a preformed C4BP/PS complex. Changes in the complex concentration were followed by recording the TR-FRET signal. For both peptides, a time- and concentration-dependent dissociation of the C4BP/PS complex was observed. The IC50 of JBS3216 was 0.3 nM, and the IC50 of JBS2572 was 2 nM. The time-dependency of the complex reduction was similar for both peptides. After two hours of incubation in the presence of 100 nM JBS2572 or JBS3216, the C4BP/PS complex was reduced to 60% and 50%, respectively. In addition, binding of biotinylated JBS2572 to Protein S was inhibited by C4BP in the LANCE IC50 assay. Pull-down experiments where JBS2697 was coupled to streptavidin sepharose and incubated for one hour at room temperature with (a) Protein S (1.6 pmol) (b) C4BP (8.5 pmol) and (c) Protein S (1.6 pmol)+C4BP (8.5 pmol) supported the results from the modified LANCE IC50 assay."}}, "note": "Residues, ends and D or L forms follow the SMILES beside them.", "data": [{"smiles": "CC(=O)N[C@H](C(=O)NCC(=O)N[C@@H](CC(C)C)C(=O)N[C@H](C(=O)N[C@@H](CO)C(=O)N[C@@H](C)C(=O)NCC(=O)N[C@@H](Cc1c[nH]c2ccccc12)C(=O)N[C@@H](Cc1ccc(O)cc1)C(=O)N[C@@H](CC(=O)O)C(=O)N[C@@H](Cc1ccc(O)cc1)C(=O)N[C@@H](CC(N)=O)C(=O)N[C@@H](Cc1ccccc1)C(=O)N[C@@H](CC(=O)O)C(=O)N[C@@H](Cc1c[nH]cn1)C(=O)N[C@@H](Cc1ccc(O)cc1)C(=O)N[C@@H](CCCNC(=N)N)C(=O)N[C@@H](CCC(=O)O)C(=O)N[C@@H](Cc1ccccc1)C(=O)N[C@H](C(N)=O)[C@@H](C)O)C(C)C)[C@@H](C)O", "note": "[JBS2572] (Ac-TGLVSAGWYDYNFDHYREFT-NH2)", "values": [{"measurement": "increase of activity in the CAT-assay compared to JBS2512", "setting": "[1]; His to Leu substitution at position 3", "result": 1.6, "unit": "fold"}, {"measurement": "PS/APC-dependent thrombin generation in hemophilic plasma", "setting": "[1]; hemophilic plasma", "result": "improved"}, {"measurement": "IC50", "setting": "C4BP/PS complex; peptide added to preformed C4BP/PS complex, TR-FRET, read-out: IC50 of dissociation of preformed C4BP/PS complex", "result": 2, "unit": "nM"}, {"measurement": "C4BP/PS complex reduced to", "setting": "C4BP/PS complex; two hours of incubation, 100 nM peptide", "result": 60, "unit": "%"}]}]}
